Consider twelve compounds from patent US20240239790A1, “7-Morpholino-1,6-Naphthyridin-5-yl Derivatives and Pharmaceutical Compositions Thereof Useful as DNA-PK Inhibitor” (adMare Therapeutics Society, priority 2021, published 2024).

Where two headings read alike, the source gives them in different places.

Series [1] has as its system pH2AX induction in HCT116 ATM-/- multicellular tumour spheroids. The series can be described thus: Prodrug Radiation Sensitization in Multicellular Tumour Spheroids, inhibition of pH2AX induction following radiation. It counts as cell-based. The following applies: Homo sapiens, HCT-116, 20 Gy. The method, then: Prodrug compounds were assayed to determine their potency in 3D multicellular spheroids in media maintained under 20% vs 5% oxygen. Multicellular tumour spheroids were grown to approximately 0.5 mm in diameter and irradiated with 20 Gy in combination with inhibitor test compounds to determine their potency using HCT 116 and FaDu cell lines. Experiments were carried out in 96 well plates containing 0.7 mls of MEM media containing 10% FBS and 10 mM glucose under 5% CO2 at 37° C. Following dilution of compounds 1:1000 from DMSO stocks, compounds were serially diluted from 10 μM down to 3.5 nM and 5-10 spheroids added. 96 well plates were constantly stirred to avoid spheroids settling during the course of the experiment. Endpoints were pDNA-PK (ser 2056) or pH2AX (ser 139) status in spheroid cryosections taken 1 or 2 hours following radiation and fixed immediately in formalin. Using tumour cell lines deficient in ATM improved the assay signal to noise and gH2AX readout. Using this assay prodrug activity could be compared in the more oxygenated outer spheroid layers versus less oxygenated hypoxic central cell layers.

A further series relates to FaDu cell line. The series can be described thus: Prodrug Activation in Hypoxic Stirred Tumour Cell Suspensions. The following applies: 10 μM, 4 hours.
Series [2] addresses T1, DNA-PK phosphorylation at Serine 2056 (Homo sapiens, UniProt P78527).
T1 construct: FaDu cells were purchased from ATCC; host or cells: FaDu
As to the kind of experiment: Cellular Assay for Inhibition of DNA-PK Phosphorylation at Serine 2056 in FaDu cells (sandwich ELISA, neocarzinostatin). It counts as cell-based. To be noted: pSer2056 DNA-PK, Table 3. A digest of the protocol: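 FaDu cells pre-treated with compound (0.3% DMSO) for 1 h, then neocarzinostatin 1 μg/mL final added for 2 h to induce DSBs. Protein-normalised lysates read by sandwich ELISA for total and pSer2056 DNA-PK; % inhibition normalised between DMSO and NCS controls, IC50 from variable-slope log(inhibitor) fit.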
(ELISA stands for enzyme-linked immunosorbent assay.)

Setting [3] is: 5% O2, inner layers, read-out: Prodrug 5% O2 Inner layers EC50.
Setting [4] is: 5% O2, outer layers, read-out: Prodrug 5% O2 Outer layers EC50.
Setting [5] is: 20% O2, outer layers, read-out: Prodrug 20% O2 Outer layers EC50.

The term EC50 denotes the concentration that produces a half-maximal response. The IC50 is the midpoint of a concentration-inhibition curve. Low readings indicate greater potency in that assay, high ones weaker potency in that assay. With `COc1cccnc1N[C@H]1CC[C@@H](Oc2nc(N3CCOCC3)cc3ncc(N(Cc4cnc([N+](=O)[O-])n4C)S(C)(=O)=O)cc23)CC1` [LFA2009, N-[5-[4-[(3-methoxy-2-pyridyl)amino]cyclohexoxy]-7-morpholino-1,6-naphthyridin-3-yl]-N-[(3-methyl-2-nitro-imidazol-4-yl)methyl]methanesulfonamide], the EC50 in series [1] (setting [3]), in series [1] (setting [4]) and in series [1] (setting [5]) was 1000 to 10000 nM throughout. Also, in the series with FaDu cell line, the “Fraction of prodrug converted to active form, Hypoxic 0.2% O2” value (“Fraction … Hypoxic 0.2% O2” below) is “B (B is 0.05 to 0.15)”. Moreover, in the series with FaDu cell line, the “Fraction of prodrug converted to active form, Oxic 5% O2” value (“Fraction … Oxic 5% O2” below) is “C (C is 0.02 to 0.05)”. The compound also displayed an IC50 in series [2] of 10000 to 30000 nM.
As for `Cc1cc(C)nc(N[C@H]2CC[C@@H](Oc3nc(N4CCOCC4)cc4ncc(N(Cc5cnc([N+](=O)[O-])n5C)S(C)(=O)=O)cc34)CC2)n1` [LFA2098, N-[5-[4-[(4,6-dimethylpyrimidin-2-yl)amino]cyclohexoxy]-7-morpholino-1,6-naphthyridin-3-yl]-N-[(3-methyl-2-nitro-imidazol-4-yl)methyl]methanesulfonamide], the half-maximal effective concentration (EC50) in series [1] (setting [3]), in series [1] (setting [4]) and in series [1] (setting [5]) was 1000 to 10000 nM each time. Besides, the “Fraction … Hypoxic 0.2% O2” value in the series with FaDu cell line was “B (B is 0.05 to 0.15)”. The “Fraction … Oxic 5% O2” value in the series with FaDu cell line was “D (D is 0 to 0.02)”. For the same compound, in series [2], the IC50 is 100 to 1000 nM.
Turning to `CC(Oc1cnc2cc(N3CCOCC3)nc(O[C@H]3CC[C@@H](Nc4ncc(OCCN5CCOCC5)cn4)CC3)c2c1)c1cnc([N+](=O)[O-])n1C` (stereo partly drawn) [LFA2049, N-[4-[[3-[1-(3-methyl-2-nitro-imidazol-4-yl)ethoxy]-7-morpholino-1,6-naphthyridin-5-yl]oxy]cyclohexyl]-5-(2-morpholinoethoxy)pyrimidin-2-amine], the results for the EC50 in series [1] (setting [3]), in series [1] (setting [4]) and in series [1] (setting [5]) were 10 to 500 nM, 500 to 1000 nM and 1000 to 10000 nM, respectively. In the series on FaDu cell line, the “Fraction … Hypoxic 0.2% O2” value was “A (A is 0.15 to 1)”. For the same compound, in the series with FaDu cell line, the “Fraction … Oxic 5% O2” value is recorded as “B (B is 0.05 to 0.15)”. The compound further gave an IC50 in series [2] of 100 to 1000 nM.
As to `CN1CCN(c2cnc(N[C@H]3CC[C@@H](Oc4nc(N5CCOCC5)cc5ncc(OCc6cnc([N+](=O)[O-])n6C)cc45)CC3)nc2)CC1` [LFA2065, N-[4-[[3-[(3-methyl-2-nitro-imidazol-4-yl)methoxy]-7-morpholino-1,6-naphthyridin-5-yl]oxy]cyclohexyl]-5-(4-methylpiperazin-1-yl)pyrimidin-2-amine], the values for the 50% effective concentration (EC50) in series [1] (setting [3]), in series [1] (setting [4]) and in series [1] (setting [5]) were 10 to 500 nM, 1000 to 10000 nM and 1000 to 10000 nM, respectively. In the series on FaDu cell line, the “Fraction … Hypoxic 0.2% O2” value is on record as “A (A is 0.15 to 1)”. Besides, the “Fraction … Oxic 5% O2” value with FaDu cell line is given as “C (C is 0.02 to 0.05)”. In series [2], this compound came in with an IC50 of 10000 to 30000 nM.
Take `CC(c1cnc([N+](=O)[O-])n1C)N(c1cnc2cc(N3CCOCC3)nc(O[C@H]3CC[C@@H](Nc4ncc(CN5CCOCC5)cn4)CC3)c2c1)S(C)(=O)=O` (stereo partly drawn) [LFA2053, N-[1-(3-methyl-2-nitro-imidazol-4-yl)ethyl]-N-[7-morpholino-5-[4-[[5-(morpholinomethyl)pyrimidin-2-yl]amino]cyclohexoxy]-1,6-naphthyridin-3-yl]methanesulfonamide]: the EC50 lay within 10 to 500 nM in series [1] (setting [3]), 500 to 1000 nM in series [1] (setting [4]) and 1000 to 10000 nM in series [1] (setting [5]). Also, in the series with FaDu cell line, the “Fraction … Hypoxic 0.2% O2” value is “B (B is 0.05 to 0.15)”. Further, the “Fraction … Oxic 5% O2” value with FaDu cell line is listed as “D (D is 0 to 0.02)”. Moreover, in series [2], the concentration for half-maximal inhibition (IC50) lay in the range of 10000 to 30000 nM.
Regarding `CC(c1cnc([N+](=O)[O-])n1C)N(c1cnc2cc(N3CCOCC3)nc(O[C@H]3CC[C@@H](Nc4nccnc4C#N)CC3)c2c1)S(C)(=O)=O` (stereo partly drawn) [LFA2100, N-[5-[4-[(3-cyanopyrazin-2-yl)amino]cyclohexoxy]-7-morpholino-1,6-naphthyridin-3-yl]-N-[1-(3-methyl-2-nitro-imidazol-4-yl)ethyl]methanesulfonamide], the EC50 in series [1] (setting [3]) was 10 to 500 nM; in series [1] (setting [4]), 1000 to 10000 nM; in series [1] (setting [5]), 10000 to 100000 nM. The “Fraction … Hypoxic 0.2% O2” value in the series with FaDu cell line was “C (C is 0.02 to 0.05)”. Further, the “Fraction … Oxic 5% O2” value in the series with FaDu cell line is reported as “D (D is 0 to 0.02)”. In series [2], this compound yielded a half-inhibitory concentration (IC50) of 10000 to 30000 nM.
For `Cn1c(CN(c2cnc3cc(N4CCOCC4)nc(OC4CCC(Nc5ncc(N6CCN(CCF)CC6)cn5)CC4)c3c2)S(C)(=O)=O)cnc1[N+](=O)[O-]` (stereo not drawn) [LFA2044, N-[5-[4-[[5-[4-(2-fluoroethyl)piperazin-1-yl]pyrimidin-2-yl]amino]cyclohexoxy]-7-morpholino-1,6-naphthyridin-3-yl]-N-[(3-methyl-2-nitro-imidazol-4-yl)methyl]methanesulfonamide], the results for the concentration for a half-maximal effect (EC50) in series [1] (setting [3]), in series [1] (setting [4]) and in series [1] (setting [5]) were 10 to 500 nM, 1000 to 10000 nM and 1000 to 10000 nM, respectively. The “Fraction … Hypoxic 0.2% O2” value in the series on FaDu cell line is given as “C (C is 0.02 to 0.05)”. In addition, in the series on FaDu cell line, the “Fraction … Oxic 5% O2” value is recorded as “D (D is 0 to 0.02)”. The IC50 in series [2] is 1000 to 10000 nM.
Turning to `CC(c1cnc([N+](=O)[O-])n1C)N(c1cnc2cc(N3CCOCC3)nc(O[C@H]3CC[C@@H](Nc4ncc(OC5CCN(C)C5)cn4)CC3)c2c1)S(C)(=O)=O` (stereo partly drawn) [LFA2068, N-[1-(3-methyl-2-nitro-imidazol-4-yl)ethyl]-N-[5-[4-[[5-(1-methylpyrrolidin-3-yl)oxypyrimidin-2-yl]amino]cyclohexoxy]-7-morpholino-1,6-naphthyridin-3-yl]methanesulfonamide], the EC50 in series [1] (setting [3]) was in the range of 500 to 1000 nM; in series [1] (setting [4]), 1000 to 10000 nM; in series [1] (setting [5]), 10000 to 100000 nM. Moreover, in the series on FaDu cell line, the “Fraction … Hypoxic 0.2% O2” value is reported as “B (B is 0.05 to 0.15)”. For the same compound, the “Fraction … Oxic 5% O2” value with FaDu cell line is listed as “D (D is 0 to 0.02)”. In addition, the half-inhibitory concentration (IC50) in series [2] lay in the range of 1000 to 10000 nM.
`CN1CCC(Oc2cnc(N[C@H]3CC[C@@H](Oc4nc(N5CCOCC5)cc5ncc(N(Cc6cnn(C)c6[N+](=O)[O-])S(C)(=O)=O)cc45)CC3)nc2)C1` (stereo partly drawn) [LFA2062, N-[(1-methyl-5-nitro-pyrazol-4-yl)methyl]-N-[5-[4-[[5-(1-methylpyrrolidin-3-yl)oxypyrimidin-2-yl]amino]cyclohexoxy]-7-morpholino-1,6-naphthyridin-3-yl]methanesulfonamide]: the EC50 in series [1] (setting [3]) lay in the range of 10 to 500 nM; in series [1] (setting [4]), 500 to 1000 nM; in series [1] (setting [5]) it was 1000 to 10000 nM. Further, in the series on FaDu cell line, the “Fraction … Hypoxic 0.2% O2” value was “B (B is 0.05 to 0.15)”. Also, in the series with FaDu cell line, the “Fraction … Oxic 5% O2” value was “B (B is 0.05 to 0.15)”. Besides, the IC50 in series [2] is 1000 to 10000 nM.
With `Cc1cc(C#N)nc(N[C@H]2CC[C@@H](Oc3nc(N4CCOCC4)cc4ncc(OCc5cnc([N+](=O)[O-])n5C)cc34)CC2)n1` [LFA2093, 6-methyl-2-[[4-[[3-[(3-methyl-2-nitro-imidazol-4-yl)methoxy]-7-morpholino-1,6-naphthyridin-5-yl]oxy]cyclohexyl]amino]pyrimidine-4-carbonitrile], the EC50 in series [1] (setting [3]), in series [1] (setting [4]) and in series [1] (setting [5]) was 1000 to 10000 nM in each case. Further, in the series on FaDu cell line, the “Fraction … Hypoxic 0.2% O2” value is recorded as “B (B is 0.05 to 0.15)”. Moreover, in the series on FaDu cell line, the “Fraction … Oxic 5% O2” value is “B (B is 0.05 to 0.15)”. Also, the IC50 in series [2] is 10000 to 30000 nM.
As for `CC(c1cnc([N+](=O)[O-])n1C)N(c1cnc2cc(N3CCOCC3)nc(O[C@H]3CC[C@@H](Nc4ncc(CCN5CCOCC5)cn4)CC3)c2c1)S(C)(=O)=O` (stereo partly drawn) [LFA2074, N-[1-(3-methyl-2-nitro-imidazol-4-yl)ethyl]-N-[7-morpholino-5-[4-[[5-(2-morpholinoethyl)pyrimidin-2-yl]amino]cyclohexoxy]-1,6-naphthyridin-3-yl]methanesulfonamide], the values for the EC50 in series [1] (setting [3]), in series [1] (setting [4]) and in series [1] (setting [5]) were 10 to 500 nM, 500 to 1000 nM and 1000 to 10000 nM, respectively. Moreover, in the series on FaDu cell line, the “Fraction … Hypoxic 0.2% O2” value is on record as “B (B is 0.05 to 0.15)”. In the series on FaDu cell line, the “Fraction … Oxic 5% O2” value is recorded as “C (C is 0.02 to 0.05)”. Also, the IC50 in series [2] fell in the range of 1000 to 10000 nM.
Regarding `CC(NS(=O)(=O)c1cnc2cc(N3CCOCC3)nc(O[C@H]3CC[C@@H](Nc4ncc(C(F)(F)F)cn4)CC3)c2c1)c1cnc([N+](=O)[O-])n1C` (stereo partly drawn) [LFA2092, N-[1-(3-methyl-2-nitro-imidazol-4-yl)ethyl]-7-morpholino-5-[4-[[5-(trifluoromethyl)pyrimidin-2-yl]amino]cyclohexoxy]-1,6-naphthyridine-3-sulfonamide], the 50% effective concentration (EC50) fell in the range of 10000 to 100000 nM in series [1] (setting [3]), 10000 to 100000 nM in series [1] (setting [4]) and 1000 to 10000 nM in series [1] (setting [5]). Besides, in the series with FaDu cell line, the “Fraction … Hypoxic 0.2% O2” value was “D (D is 0 to 0.02)”. The “Fraction … Oxic 5% O2” value in the series with FaDu cell line is “D (D is 0 to 0.02)”. In series [2], the IC50 lay within 10000 to 30000 nM.
